Measured values as given in patent publication US20220117890A1, “CANNABINOID EMULSIONS” (CORN PRODUCTS DEVELOPMENT, INC., priority 2020, published 2022).

Legend:
[1] = Plasma pharmacokinetics of CBD after single IV or oral administration; type: in vivo, male Sprague-Dawley rats; conditions: male, Sprague-Dawley, IV 2 mg/kg, rat, read-out: Concentration (CBD in blood plasma)
[2] = as above; type: in vivo, male Sprague-Dawley rats; conditions: male, Sprague-Dawley, IV 2 mg/kg, rat
Excerpt: Plasma pharmacokinetics following single intravenous cannabidiol (CBD solid) or oral administration (4 emulsions+1 non-emulsified oil) was investigated in male Sprague-Dawley rats. Rats were used for this study because they are an accepted model for characterization of pharmacokinetics of formulations being developed for humans. Twelve (12) single-catheterized rats (275-300 g, jugular vein catheter) were obtained from Envigo and divided into 6 groups of 2 animals each. Rats were acclimated for 5 days; the temperature was controlled from 68-79° F., the humidity was controlled from 20% to 70% and the light source was fluorescent lamps with a light/dark cycle of 12/12 hours on/off. No concurrent medication was administered during the study, and all rats had access (ad-libitum) to Tekland Rodent Chow 2018 (Envigo) and tap water throughout the live phase. All animals were randomly placed. Post acclimation, all animals received a single IV (tail vein injection) or oral treatment of one of the nanoemulsions, a non-emulsified oil, or a positive control based on Table 7. Group 1 animals received a single IV injection while Groups 2-6 received a single oral administration. The non-emulsified oil is CBD isolate dissolved in MCT oil. WFI=sterile water for injection. Dosing and dose volume are in […] (body weight) and mL/kg (body weight) respectively.
The CBD concentration in blood plasma samples obtained at various collection times (15, 30, 60, 120, 180, 240, 480 minutes and 24 hr) was determined.
The following pharmacokinetic parameters were determined: Bioavailability absolute (Fabs), Bioavailability relative to non-emulsified (Frel), the time at maximum concentration, the maximum concentration, and half-life (T1/2).

## C=C(C)[C@@H]1CCC(C)=C[C@H]1c1c(O)cc(CCCCC)cc1O [CBD solid, cannabidiol]
[1]
  concentration at 5 min: 1560 ng/mL
[2]
  AUC(0-inf): 2010 ng·h/mL
  AUC(0-t): 1980 ng·h/mL
[2]; read-out: Cmax (maximum concentration)
  Cmax: 1560 ng/mL
[2]; read-out: Tmax (time at maximum concentration)
  Tmax: 15 min
[2]; time 30 min, read-out: Concentration (CBD in blood plasma)
  concentration at 30 min: 481 ng/mL
[2]; time 60 min, read-out: Concentration (CBD in blood plasma)
  concentration at 60 min: 341 ng/mL
[2]; time 120 min, read-out: Concentration (CBD in blood plasma)
  concentration at 120 min: 178 ng/mL
[2]; time 180 min, read-out: Concentration (CBD in blood plasma)
  concentration at 180 min: 89.2 ng/mL
[2]; time 240 min, read-out: Concentration (CBD in blood plasma)
  concentration at 240 min: 44.2 ng/mL
[2]; time 480 min, read-out: Concentration (CBD in blood plasma)
  concentration at 480 min: 10.6 ng/mL
[2]; time 24 hr, read-out: Concentration (CBD in blood plasma)
  concentration at 24 hr: 5.2 ng/mL
